According to US20030219494A1, “Compositions and methods of using them” (priority 2002, published 2003):
Where two headings read alike, the source gives them in different places.

Experiments:
[1] = tested on: mechanical allodynia in STZ-diabetic DA rats; test: von Frey antinociception (relief of mechanical allodynia) after single s.c. opioid in STZ-diabetic DA rats, standard chow or dietary L-arginine; conditions: for ED50: Rattus norvegicus, sc; for peak antinociception / time of decline of antinociception to baseline levels (<20% MPE) / time to peak antinociception: 3 wks post-STZ
Experimental: Deep and stable anaesthesia was induced with a mixture of ketamine (100 mg/kg, i.p.) and xylazine (16 mg/kg, i.p.) to facilitate insertion of a polyethylene cannula (previously filled with 0.1 ml of sterile saline) into the right common jugular vein. Jugular vein cannulae were tested for correct placement by the withdrawal of a small amount of blood. Diabetes was induced following an acute i.v. injection of streptozotocin (STZ) (85 mg/kg) in 0.1 M citrate buffer (pH 4.5) into the jugular vein.
Naïve non-diabetic rats (n=36) were used in the control experiments. Following STZ administration, benzylpenicillin (60 mg, s.c.) was administered to prevent infection and rats were monitored closely during surgical recovery. Rats were then housed singly or in pairs for period of 3 wks to 38 wks, depending upon the study cohort to which they belonged.
(§1) Multiple aliquots of these stock solutions were stored at −20° C. until required. […] Whilst under light anaesthesia with CO2/O2 (50:50%), rats received a single s.c. injection (100 μL) of one opioid or vehicle (saline) into the dorsal region of the base of the neck, using a 250 μL Hamilton syringe.
(§2) Mechanical allodynia, the distinguishing feature of diabetic neuropathic pain, was quantified using von Frey filaments. Rats were placed in a metabolic cage (20 cm×20 cm×20 cm) with a metal mesh floor and allowed to acclimatise for approximately 10 min. von Frey filaments were used to quantify the lowest mechanical threshold required for a brisk paw withdrawal reflex. The force was applied to the plantar surface of the left hindpaw and held until the filament buckled slightly. The absence of a response after 5 s prompted application of the next filament of increasing force. Filaments available for use included those that produced a buckling weight of 2, 4, 5, 6, 8, 10, 12, 14, 16, and 18 g. Filaments were calibrated daily before undertaking antinociceptive testing. […] Pre-drug (opioid or saline) responses were the mean of three readings taken ≈5 min apart. Assessment of von Frey filament responsiveness was determined at the following times post-opioid (or saline) administration: 15, 30, 45, 60, 90, 120 and 180 min.
(§3) The von Frey scores for individual rats were converted to the Percentage of the Maximum Possible Antinociceptive Effect (% MPE), according to the formula: [formula]
(§4) The mean (±SEM) percentage maximum AUC (% Max AUC) was calculated according to the following formula: [formula]
(§5) ED50 estimation was facilitated by the inclusion of theoretical maximum and minimum % Max AUC values.
This study comprised three groups of STZ-diabetic DA rats. […] Subsequent doses were chosen to facilitate construction of dose-response curves for the alleviation of tactile allodynia. Antinociception was quantified using calibrated von Frey filaments.
At 9 wks post-STZ administration, Group 1 STZ-diabetic rats received a dietary intervention of an L-arginine supplement (1 g per day) incorporated into rat chow, until the end of the 24 wk study period.
At 14 wks post-STZ administration, a dietary intervention comprising L-arginine supplementation (1 g per day in rat chow) was initiated which was continued for another 8 wks.
At 30 wks post-STZ administration, dietary L-arginine supplementation (1 g/day in rat chow) was initiated and continued for 8 wks.

[2] = tested on: naïve control non-diabetic DA rats; test: von Frey antinociception after single s.c. opioid in control non-diabetic DA rats; assay type: in vivo, rat; conditions: for ED50: s.c.
Experimental: as §1, §2, §3, §4, §5
Weight-matched naïve control DA rats received dietary L-arginine supplementation (1 g per day in rat chow) for at least 1 wk prior to acute opioid administration and concomitant antinociceptive testing. Importantly, since diabetic rats eat twice as much as naïve control non-diabetic rats, the concentration of L-arginine in rat chow administered to control non-diabetic rats was doubled to maintain consistent L-arginine dosing between the STZ-diabetic rats and the control non-diabetic rats.

naïve Dark Agouti rats = conditions: s.c., tail flick test; cited from earlier work
[3] = tested on: rats with a chronic constriction injury (CCI) of the sciatic nerve; conditions: relief of mechanical allodynia; cited from earlier work
[4] = tested on: tactile allodynia in STZ-diabetic DA rats; test: baseline von Frey paw withdrawal thresholds in STZ-diabetic rats given dietary L-arginine; assay type: in vivo, rat
Text: Filaments were calibrated daily before undertaking antinociceptive testing.

[5] = body weight of STZ-diabetic rats given dietary L-arginine; assay type: in vivo, rat
Text: Group 3 STZ-diabetic rats, (n=6, 224.7±2.9 g, mean±SEM) were the same rats used in Example 1 above. […] At 30 wks post-STZ administration, dietary L-arginine supplementation (1 g/day in rat chow) was initiated and continued for 8 wks.

[6] = body weight of control non-diabetic rats given dietary L-arginine; assay type: in vivo, rat; conditions: control non-diabetic rats after 1 wk dietary L-arginine
Text: Importantly, since diabetic rats eat twice as much as naïve control non-diabetic rats, the concentration of L-arginine in rat chow administered to control non-diabetic rats was doubled to maintain consistent L-arginine dosing between the STZ-diabetic rats and the control non-diabetic rats.

[7] = 24 wks post-STZ / full 24 wk study period, standard chow
[8] = 504 h, read-out: Mean (±SEM) ED50, STZ-diabetic rats 3 wks post-STZ, standard chow, s.c.
[9] = 1512 h, STZ-diabetic rats at 3 and 9 wks post-STZ, standard chow
[10] = 1512 h, read-out: Mean (±SEM) ED50, STZ-diabetic rats 9 wks post-STZ, standard chow (before L-arginine), s.c.
[11] = STZ-diabetic rats 12 wks post-STZ after 3 wks dietary L-arginine (1 g/day), s.c.
[12] = STZ-diabetic rats 24 wks post-STZ after 15 wks dietary L-arginine (1 g/day), s.c.
[13] = Rattus norvegicus, sc, control naïve non-diabetic rats, standard chow, von Frey % Max AUC, read-out: Mean (±SEM) ED50
[14] = 3 wks supplementation, 9 to 12 wks post-STZ
[15] = Group 1, 12 wks post-STZ (3 wks L-arginine)
[16] = Group 2, 18 wks post-STZ (4 wks L-arginine)
[17] = Group 2, 22 wks post-STZ (8 wks L-arginine)
[18] = Group 3, 34 wks post-STZ (4 wks L-arginine)
[19] = Group 3, 38 wks post-STZ (8 wks L-arginine)

## COc1ccc2c3c1O[C@H]1C(=O)CC[C@@]4(O)[C@@H](C2)N(C)CC[C@]314 [oxycodone]
[1]; 12 wks post-STZ, standard chow, s.c.
  antinociceptive efficacy/potency: maintained
[1]; [7]
  antinociceptive efficacy: maintained
[1]; [8]
  ED50: 2 mg/kg
[1]; [9]
  ED50: 2.1 ± 0.4 mg/kg
[1]; [10]
  ED50: 2.1 mg/kg
[1]; 2016 h, read-out: Mean (±SEM) ED50, STZ-diabetic rats 12 wks post-STZ, standard chow, s.c.
  ED50: 4.1 mg/kg
[1]; 4032 h, read-out: Mean (±SEM) ED50, STZ-diabetic rats 24 wks post-STZ, standard chow, s.c.
  ED50: 4.2 mg/kg
[1]; [11]
  ED50: 2 ± 0.3 mg/kg
[1]; [12]
  ED50: 1.8 ± 0.3 mg/kg
[1]; STZ-diabetic rats 3 wks post-STZ, s.c.
  potency relative to morphine for alleviation of mechanical allodynia: ≈ 3 times
[1]; STZ-diabetic rats, standard chow
  decrease in potency between 9 and 12 wks post-STZ: 2 fold
[1]; at 12 wks post-STZ, unchanged at 24 wks, standard chow
  decrease in antinociceptive potency relative to control non-diabetic rats: 4 fold
[1]; by 3 wks post-STZ
  rightward shift in the dose-response curve versus non-diabetic rats: ≈ 1.7 fold
[1]; by 9 wks post-STZ
  decrease in potency relative to weight-matched control non-diabetic rats: ≈ 2 fold
[1]; oxycodone 1.7 mg/kg s.c.
  peak antinociception: 90 % MPE
  time of decline of antinociception to baseline levels (<20% MPE): ≤ 120 min
  time to peak antinociception: ≤ 30 min
[1]; oxycodone 2.0 mg/kg s.c., 9 wks post-STZ, standard chow
  % MPE AUC: 108.7±13.2 % MPE-h
[1]; oxycodone 2.0 mg/kg s.c., 12 wks post-STZ, standard chow
  % MPE AUC: 37.0±1.1 % MPE-h
[1]; oxycodone 2.0 mg/kg s.c., 20 wks post-STZ, 11 wks dietary L-arginine (Group 1)
  % MPE AUC (±SEM): 160.3±7.6 % MPE-h
[1]; oxycodone 2.0 mg/kg s.c., 22 wks post-STZ, 8 wks dietary L-arginine (Group 2)
  % MPE AUC: 139.4±9.4 MPE-h
[1]; oxycodone 2.0 mg/kg s.c., 38 wks post-STZ, 8 wks dietary L-arginine (Group 3)
  % MPE AUC: 147.0±1.9 % MPE-h
[1]; oxycodone 4.0 mg/kg s.c., 24 wks post-STZ, standard chow
  % MPE AUC: 144.0±13.7 MPE-h
[1]; oxycodone, 11 wks dietary L-arginine (20 wks post-STZ)
  potency for relief of mechanical allodynia as percent of that in diabetic rats on standard chow at 9 wks post-STZ: ≈ 150%
[2]; Rattus norvegicus, sc, 168 h, control non-diabetic rats, dietary L-arginine 1 g/day for 1 wk, read-out: ED50
  ED50: 1 ± 0.1 mg/kg
[2]; [13]
  ED50: 1.2 mg/kg
[2]; printed: at 3 and 9 wks post-STZ, s.c. route, naïve non-diabetic rats
  potency relative to morphine: ≈ 2 fold
naïve Dark Agouti rats
  potency relative to morphine: ≈ 3 times
[3]
  potency relative to morphine: ≈ 4 times

## N=C(N)NCCC[C@H](N)C(=O)O [L-arginine]
[1]; [14]
  effect of dietary L-arginine on morphine's antinociceptive efficacy: prevented the abolition
  effect of dietary L-arginine on oxycodone potency: prevented the 2-fold decrease
[1]; 4 wks supplementation (30 to 34 wks post-STZ), Group 3
  effect of dietary L-arginine on antinociceptive potency of morphine: partially restored
[1]; 4 wks supplementation, Group 2, 18 wks post-STZ
  effect of dietary L-arginine on antinociceptive efficacy of s.c. morphine (6.1 mg/kg): restored
[1]; started 14 and 30 wks post-STZ (groups 2 and 3), after as little as 4 wks
  effect of late-initiated dietary L-arginine on morphine efficacy: restored morphine efficacy
[4]; Group 1, 9 wks post-STZ (start of dietary L-arginine 1 g/day)
  paw withdrawal threshold: 6.8 (±0.3) g
[4]; [15]
  paw withdrawal threshold: 4.3 (±0.1) g
[4]; Group 1, 24 wks post-STZ (15 wks L-arginine)
  paw withdrawal threshold: 5.2 (±0.1) g
[4]; [16]
  paw withdrawal threshold: 4.9 (±0.2) g
[4]; [17]
  paw withdrawal threshold: 6.1 (±0.4) g
[4]; [18]
  paw withdrawal threshold: 3.9 (±0.2) g
[4]; [19]
  paw withdrawal threshold: 5.0 (±0.2) g
[5]; [15]
  mean (±SEM) body weight: 229.0 (±6.0) g
[5]; Group 1, 16 wks post-STZ (7 wks L-arginine)
  mean (±SEM) body weight: 218.0 (±7.2) g
[5]; Group 1, 20 wks post-STZ (11 wks L-arginine), n=6
  mean (±SEM) body weight: 253.4 (±9.9) g
[5]; Group 1, 24 wks post-STZ (15 wks L-arginine), n=25
  mean (±SEM) body weight: 234.5 (±5.1) g
[5]; [16]
  mean (±SEM) body weight: 203.2 (±6.4) g
[5]; [17]
  mean (±SEM) body weight: 220.9 (±11.6) g
[5]; [18]
  mean (±SEM) body weight: 207.8 (±10.7) g
[5]; [19]
  mean (±SEM) body weight: 221.7 (±11.7) g
[6]
  mean (±SEM) body weight: 236.3 g

## CN1CC[C@]23c4c5ccc(O)c4O[C@H]2[C@@H](O)C=C[C@H]3[C@H]1C5 [morphine]
[1]; [7]
  antinociceptive efficacy: remained completely abolished
[1]; [8]
  ED50: 6.1 mg/kg
[1]; [9]
  ED50: 6.1 ± 0.3 mg/kg
[1]; [10]
  ED50: 6.1 mg/kg
[1]; [11]
  ED50: 7 ± 0.5 mg/kg
[1]; [12]
  ED50: 5 ± 0.9 mg/kg
[1]; STZ-diabetic rats 12 wks post-STZ, standard chow, s.c.
  Mean (±SEM) ED50: No efficacy
[1]; STZ-diabetic rats 24 wks post-STZ, standard chow, s.c.
  Mean (±SEM) ED50: No efficacy
[1]; morphine 4 mg/kg s.c.
  peak antinociception: 70 % MPE
  time of decline of antinociception to baseline levels (<20% MPE): ≤ 90 min
  time to peak antinociception: ≤ 15 min
[1]; morphine 6.1 mg/kg s.c., 14 wks post-STZ, before L-arginine (Group 2)
  antinociceptive efficacy: completely abolished
[1]; morphine 6.1 mg/kg s.c., 16 wks post-STZ, 7 wks dietary L-arginine
  efficacy for the relief of mechanical allodynia: maintained
[1]; morphine 14.2 mg/kg s.c., 12 wks post-STZ
  antinociceptive efficacy: remained completely abolished
[1]; morphine 18 mg/kg s.c., 12 wks post-STZ
  antinociception: absence of antinociception
[1]; morphine 18 mg/kg s.c., STZ-diabetic rats 12 wks post-STZ (myoclonus, biting of cage)
  behavioural side effects: mild neuro-excitatory behaviours
[1]; morphine s.c., 24 wks post-STZ, 15 wks dietary L-arginine
  antinociceptive efficacy: maintained
[1]; morphine, STZ-diabetic rats, 11 wks dietary L-arginine (20 wks post-STZ)
  potency for relief of mechanical allodynia as percent of that in control non-diabetic rats: ≈ 90%
[2]; [13]
  ED50: 2.4 mg/kg
[2]; control non-diabetic rats, dietary L-arginine 1 g/day for 1 wk
  ED50: does not differ significantly
